# Assay results from ChEMBL document CHEMBL1201862, “PubChem BioAssay data set” (2004).
#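 The compound was tested at five concentrations on cells cultured in 96-well plates, with a 48-hour exposure period. GI50 = concentration required for 50% inhibition of growth.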 Active and inactive are the calls of the source. Rule as the data show it: active = GI50 up to about 1.1 µM and inactive = higher.
# Columns and labels:
# Test in all cases: NCI-60 cell line screen, 48 h
# MDA-MB-231 = tested on: MDA-MB-231
# RXF 393 = tested on: RXF 393
# HCT-15 = tested on: HCT-15
# PC-3 = tested on: PC-3
# DU-145 = tested on: DU-145
# UACC-257 = tested on: UACC-257
# OVCAR-5 = tested on: OVCAR-5
# BT-549 = tested on: BT-549
# SF-539 = tested on: SF-539
# M14 = tested on: M14
# SNB-19 = tested on: SNB-19
# OVCAR-4 = tested on: OVCAR-4
# T47D = tested on: T47D
# 786-0 = tested on: 786-0
# OVCAR-8 = tested on: OVCAR-8
# SF-268 = tested on: SF-268
# K562 = tested on: K562
# CAKI-1 = tested on: CAKI-1
# TK-10 = tested on: TK-10
# CCRF-CEM = tested on: CCRF-CEM
# UACC-62 = tested on: UACC-62
# OVCAR-3 = tested on: OVCAR-3
# NCI/ADR-RES = tested on: NCI/ADR-RES
# SK-MEL-5 = tested on: SK-MEL-5
# SK-MEL-28 = tested on: SK-MEL-28
# UO-31 = tested on: UO-31
# Malme-3M = tested on: Malme-3M
# MCF7 = tested on: MCF7
# NCI-H23 = tested on: NCI-H23
# SW-620 = tested on: SW-620
# A549 = tested on: A549
# NCI-H460 = tested on: NCI-H460
# MDA-N = tested on: MDA-N
# KM12 = tested on: KM12
# U-251 = tested on: U-251
# NCI-H226 = tested on: NCI-H226
# HT-29 = tested on: HT-29
# A498 = tested on: A498
# RPMI-8226 = tested on: RPMI-8226
# SF-295 = tested on: SF-295
# COLO 205 = tested on: COLO 205
# HCC 2998 = tested on: HCC 2998
# SK-MEL-2 = tested on: SK-MEL-2
# HOP-92 = tested on: HOP-92
# HL-60 = tested on: HL-60
# HCT-116 = tested on: HCT-116
# MOLT-4 = tested on: MOLT-4
# SK-OV-3 = tested on: SK-OV-3
# ACHN = tested on: ACHN
# HOP-62 = tested on: HOP-62
# SNB-75 = tested on: SNB-75
# SN12C = tested on: SN12C
# MDA-MB-435 = tested on: MDA-MB-435
# LOX IMVI = tested on: LOX IMVI
# EKVX = tested on: EKVX
# Hs-578T = tested on: Hs-578T
# IGROV-1 = tested on: IGROV-1
# NCI-H522 = tested on: NCI-H522
# SR = tested on: SR
smiles,measurement,setting,value
CC(Cl)CC(=O)OCC1CCCN2CCCCC12 (stereo unspecified),GI50,MDA-MB-231,> 100 µM (inactive)
same,GI50,RXF 393,> 100 µM (inactive)
same,GI50,HCT-15,> 100 µM
same,GI50,PC-3,> 100 µM (inactive)
same,GI50,DU-145,> 100 µM (inactive)
same,GI50,UACC-257,> 100 µM (inactive)
same,GI50,OVCAR-5,> 100 µM (inactive)
same,GI50,BT-549,> 100 µM (inactive)
same,GI50,SF-539,> 100 µM (inactive)
same,GI50,M14,> 100 µM (inactive)
same,GI50,SNB-19,> 100 µM (inactive)
same,GI50,OVCAR-4,> 100 µM (inactive)
same,GI50,T47D,> 100 µM (inactive)
same,GI50,786-0,> 100 µM (inactive)
same,GI50,OVCAR-8,> 100 µM (inactive)
same,GI50,SF-268,> 100 µM (inactive)
same,GI50,K562,> 100 µM (inactive)
same,GI50,CAKI-1,> 100 µM (inactive)
same,GI50,TK-10,> 100 µM (inactive)
same,GI50,CCRF-CEM,> 100 µM (inactive)
same,GI50,UACC-62,> 100 µM (inactive)
same,GI50,OVCAR-3,> 100 µM (inactive)
same,GI50,NCI/ADR-RES,> 100 µM (inactive)
same,GI50,SK-MEL-5,> 100 µM (inactive)
same,GI50,SK-MEL-28,> 100 µM (inactive)
same,GI50,UO-31,> 100 µM (inactive)
same,GI50,Malme-3M,> 100 µM (inactive)
same,GI50,MCF7,> 100 µM (inactive)
same,GI50,NCI-H23,> 100 µM (inactive)
same,GI50,SW-620,> 100 µM (inactive)
same,GI50,A549,> 100 µM (inactive)
same,GI50,NCI-H460,> 100 µM (inactive)
same,GI50,MDA-N,> 100 µM (inactive)
same,GI50,KM12,> 100 µM (inactive)
same,GI50,U-251,> 100 µM (inactive)
same,GI50,NCI-H226,> 100 µM (inactive)
same,GI50,HT-29,> 100 µM (inactive)
same,GI50,A498,> 100 µM (inactive)
same,GI50,RPMI-8226,> 100 µM (inactive)
same,GI50,SF-295,> 100 µM (inactive)
same,GI50,COLO 205,> 100 µM (inactive)
same,GI50,HCC 2998,> 100 µM (inactive)
same,GI50,SK-MEL-2,> 100 µM (inactive)
same,GI50,HOP-92,> 100 µM (inactive)
same,GI50,HL-60,54.7 µM (inactive)
same,GI50,HCT-116,> 100 µM (inactive)
same,GI50,MOLT-4,> 100 µM (inactive)
same,GI50,SK-OV-3,> 100 µM (inactive)
same,GI50,ACHN,> 100 µM (inactive)
same,GI50,HOP-62,> 100 µM (inactive)
same,GI50,SNB-75,> 100 µM (inactive)
same,GI50,SN12C,> 100 µM (inactive)
same,GI50,MDA-MB-435,> 100 µM (inactive)
same,GI50,LOX IMVI,> 100 µM (inactive)
same,GI50,EKVX,> 100 µM (inactive)
same,GI50,Hs-578T,> 100 µM (inactive)
COc1ccc2nc3cc(Cl)ccc3c(NCCCN3CCN(CCCNc4ccc5nnn6c7ccccc7c(=O)c4c56)CC3)c2c1,GI50,MDA-MB-231,6.32 µM (inactive)
same,GI50,RXF 393,0.948 µM (active)
same,GI50,HCT-15,0.179 µM
same,GI50,PC-3,> 6.01 µM (inactive)
same,GI50,DU-145,> 25 µM (inactive)
same,GI50,UACC-257,2.51 µM (inactive)
same,GI50,OVCAR-5,> 21.2 µM (inactive)
same,GI50,BT-549,5.24 µM (inactive)
same,GI50,SF-539,0.21 µM (active)
same,GI50,M14,> 25 µM (inactive)
same,GI50,SNB-19,> 25 µM (inactive)
same,GI50,IGROV-1,0.309 µM (active)
same,GI50,T47D,> 25 µM (inactive)
same,GI50,786-0,0.646 µM (active)
same,GI50,OVCAR-8,1.42 µM (inactive)
same,GI50,SF-268,> 7.36 µM (inactive)
same,GI50,CAKI-1,> 5.62 µM (inactive)
same,GI50,TK-10,> 10.3 µM (inactive)
same,GI50,CCRF-CEM,0.17 µM (active)
same,GI50,UACC-62,> 25 µM (inactive)
same,GI50,OVCAR-3,> 25 µM (inactive)
same,GI50,NCI/ADR-RES,4.89 µM (inactive)
same,GI50,SK-MEL-5,> 25 µM (inactive)
same,GI50,SK-MEL-28,> 25 µM (inactive)
same,GI50,UO-31,> 7.5 µM (inactive)
same,GI50,NCI-H522,0.391 µM (active)
same,GI50,MCF7,0.225 µM (active)
same,GI50,NCI-H23,19.5 µM (inactive)
same,GI50,SW-620,0.0458 µM (active)
same,GI50,A549,0.172 µM (active)
same,GI50,NCI-H460,0.0995 µM (active)
same,GI50,MDA-N,1.65 µM (inactive)
same,GI50,KM12,0.277 µM (active)
same,GI50,U-251,1.32 µM (inactive)
same,GI50,NCI-H226,> 25 µM (inactive)
same,GI50,HT-29,0.0251 µM (active)
same,GI50,A498,> 25 µM (inactive)
same,GI50,SF-295,2.37 µM (inactive)
same,GI50,COLO 205,0.923 µM (active)
same,GI50,HCC 2998,0.303 µM (active)
same,GI50,SK-MEL-2,> 25 µM (inactive)
same,GI50,HOP-92,> 25 µM (inactive)
same,GI50,HL-60,1.14 µM (inactive)
same,GI50,HCT-116,0.0191 µM (active)
same,GI50,MOLT-4,0.0743 µM (active)
same,GI50,SK-OV-3,> 25 µM (inactive)
same,GI50,HOP-62,> 25 µM (inactive)
same,GI50,SNB-75,> 25 µM (inactive)
same,GI50,SN12C,1.81 µM (inactive)
same,GI50,MDA-MB-435,3.25 µM (inactive)
same,GI50,LOX IMVI,0.512 µM (active)
same,GI50,EKVX,> 17 µM (inactive)
same,GI50,Hs-578T,> 25 µM (inactive)
NC(CCP(=O)(O)O)C(=O)O (stereo unspecified),GI50,MDA-MB-231,> 100 µM (inactive)
same,GI50,RXF 393,> 100 µM (inactive)
same,GI50,HCT-15,> 100 µM
same,GI50,PC-3,> 100 µM (inactive)
same,GI50,UACC-257,> 100 µM (inactive)
same,GI50,OVCAR-5,> 100 µM (inactive)
same,GI50,BT-549,> 100 µM (inactive)
same,GI50,M14,> 100 µM (inactive)
same,GI50,SNB-19,> 100 µM (inactive)
same,GI50,IGROV-1,> 100 µM (inactive)
same,GI50,OVCAR-4,> 100 µM (inactive)
same,GI50,T47D,> 100 µM (inactive)
same,GI50,SR,> 100 µM (inactive)
same,GI50,786-0,> 100 µM (inactive)
same,GI50,OVCAR-8,> 100 µM (inactive)
same,GI50,SF-268,> 100 µM (inactive)
same,GI50,K562,> 100 µM (inactive)
same,GI50,CAKI-1,> 100 µM (inactive)
same,GI50,TK-10,> 100 µM (inactive)
same,GI50,CCRF-CEM,> 100 µM (inactive)
same,GI50,UACC-62,> 100 µM (inactive)
same,GI50,OVCAR-3,> 100 µM (inactive)
same,GI50,NCI/ADR-RES,> 100 µM (inactive)
same,GI50,SK-MEL-5,> 100 µM (inactive)
same,GI50,SK-MEL-28,> 100 µM (inactive)
same,GI50,UO-31,> 100 µM (inactive)
same,GI50,NCI-H522,> 100 µM (inactive)
same,GI50,Malme-3M,> 100 µM (inactive)
same,GI50,NCI-H23,> 100 µM (inactive)
same,GI50,SW-620,> 100 µM (inactive)
same,GI50,A549,> 100 µM (inactive)
same,GI50,NCI-H460,> 100 µM (inactive)
same,GI50,MDA-N,> 100 µM (inactive)
same,GI50,KM12,> 100 µM (inactive)
same,GI50,U-251,> 100 µM (inactive)
same,GI50,NCI-H226,> 100 µM (inactive)
same,GI50,HT-29,> 100 µM (inactive)
same,GI50,A498,> 100 µM (inactive)
same,GI50,RPMI-8226,> 100 µM (inactive)
same,GI50,SF-295,> 100 µM (inactive)
same,GI50,SK-MEL-2,> 100 µM (inactive)
same,GI50,HOP-92,> 100 µM (inactive)
same,GI50,HL-60,> 100 µM (inactive)
same,GI50,HCT-116,> 100 µM (inactive)
same,GI50,MOLT-4,> 100 µM (inactive)
same,GI50,ACHN,> 100 µM (inactive)
same,GI50,HOP-62,> 100 µM (inactive)
same,GI50,SN12C,> 100 µM (inactive)
same,GI50,MDA-MB-435,> 100 µM (inactive)
same,GI50,LOX IMVI,> 100 µM (inactive)
same,GI50,EKVX,> 100 µM (inactive)
same,GI50,Hs-578T,> 100 µM (inactive)
